For data set [1], the target named is T1, Kinesin heavy chain isoform 5A (Homo sapiens) (UniProt Q12840).
T1 sequence (whole entry): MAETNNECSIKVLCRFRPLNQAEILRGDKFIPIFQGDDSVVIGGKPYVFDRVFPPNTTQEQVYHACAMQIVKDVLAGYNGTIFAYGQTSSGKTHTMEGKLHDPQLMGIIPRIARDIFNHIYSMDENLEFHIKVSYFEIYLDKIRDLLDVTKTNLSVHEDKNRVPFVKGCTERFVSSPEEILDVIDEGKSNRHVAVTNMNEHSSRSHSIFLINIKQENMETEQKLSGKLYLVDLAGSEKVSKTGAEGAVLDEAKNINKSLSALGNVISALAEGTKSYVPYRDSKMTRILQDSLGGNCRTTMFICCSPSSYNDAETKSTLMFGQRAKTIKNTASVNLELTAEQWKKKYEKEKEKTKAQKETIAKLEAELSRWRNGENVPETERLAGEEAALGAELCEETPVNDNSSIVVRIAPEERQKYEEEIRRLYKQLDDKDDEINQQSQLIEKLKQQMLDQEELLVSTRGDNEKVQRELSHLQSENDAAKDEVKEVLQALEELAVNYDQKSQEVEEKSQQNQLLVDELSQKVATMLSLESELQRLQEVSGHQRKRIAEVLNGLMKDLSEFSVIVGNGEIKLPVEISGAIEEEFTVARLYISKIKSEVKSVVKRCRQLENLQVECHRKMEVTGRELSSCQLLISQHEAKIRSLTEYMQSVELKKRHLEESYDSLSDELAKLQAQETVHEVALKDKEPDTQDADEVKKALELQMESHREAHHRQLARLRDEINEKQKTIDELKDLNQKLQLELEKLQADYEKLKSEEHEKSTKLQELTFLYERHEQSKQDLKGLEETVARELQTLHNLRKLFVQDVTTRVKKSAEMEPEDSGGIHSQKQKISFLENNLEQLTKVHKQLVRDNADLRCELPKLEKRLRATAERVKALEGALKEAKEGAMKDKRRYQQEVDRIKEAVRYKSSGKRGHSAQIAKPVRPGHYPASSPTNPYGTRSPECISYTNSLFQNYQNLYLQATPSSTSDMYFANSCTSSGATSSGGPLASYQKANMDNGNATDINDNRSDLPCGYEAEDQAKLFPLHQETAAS
Nature of the data set: Inhibition of Kif5a ATPase activity.

Data set [2] has as its target T1, Kinesin heavy chain isoform 5A (Homo sapiens). Nature of the data set: Inhibition of MT-stimulated Kif5a ATPase activity.
For data set [3], the target named is T2, Kinesin-like protein KIF7 (Homo sapiens) (UniProt Q2M1P5).
T2 sequence (whole entry): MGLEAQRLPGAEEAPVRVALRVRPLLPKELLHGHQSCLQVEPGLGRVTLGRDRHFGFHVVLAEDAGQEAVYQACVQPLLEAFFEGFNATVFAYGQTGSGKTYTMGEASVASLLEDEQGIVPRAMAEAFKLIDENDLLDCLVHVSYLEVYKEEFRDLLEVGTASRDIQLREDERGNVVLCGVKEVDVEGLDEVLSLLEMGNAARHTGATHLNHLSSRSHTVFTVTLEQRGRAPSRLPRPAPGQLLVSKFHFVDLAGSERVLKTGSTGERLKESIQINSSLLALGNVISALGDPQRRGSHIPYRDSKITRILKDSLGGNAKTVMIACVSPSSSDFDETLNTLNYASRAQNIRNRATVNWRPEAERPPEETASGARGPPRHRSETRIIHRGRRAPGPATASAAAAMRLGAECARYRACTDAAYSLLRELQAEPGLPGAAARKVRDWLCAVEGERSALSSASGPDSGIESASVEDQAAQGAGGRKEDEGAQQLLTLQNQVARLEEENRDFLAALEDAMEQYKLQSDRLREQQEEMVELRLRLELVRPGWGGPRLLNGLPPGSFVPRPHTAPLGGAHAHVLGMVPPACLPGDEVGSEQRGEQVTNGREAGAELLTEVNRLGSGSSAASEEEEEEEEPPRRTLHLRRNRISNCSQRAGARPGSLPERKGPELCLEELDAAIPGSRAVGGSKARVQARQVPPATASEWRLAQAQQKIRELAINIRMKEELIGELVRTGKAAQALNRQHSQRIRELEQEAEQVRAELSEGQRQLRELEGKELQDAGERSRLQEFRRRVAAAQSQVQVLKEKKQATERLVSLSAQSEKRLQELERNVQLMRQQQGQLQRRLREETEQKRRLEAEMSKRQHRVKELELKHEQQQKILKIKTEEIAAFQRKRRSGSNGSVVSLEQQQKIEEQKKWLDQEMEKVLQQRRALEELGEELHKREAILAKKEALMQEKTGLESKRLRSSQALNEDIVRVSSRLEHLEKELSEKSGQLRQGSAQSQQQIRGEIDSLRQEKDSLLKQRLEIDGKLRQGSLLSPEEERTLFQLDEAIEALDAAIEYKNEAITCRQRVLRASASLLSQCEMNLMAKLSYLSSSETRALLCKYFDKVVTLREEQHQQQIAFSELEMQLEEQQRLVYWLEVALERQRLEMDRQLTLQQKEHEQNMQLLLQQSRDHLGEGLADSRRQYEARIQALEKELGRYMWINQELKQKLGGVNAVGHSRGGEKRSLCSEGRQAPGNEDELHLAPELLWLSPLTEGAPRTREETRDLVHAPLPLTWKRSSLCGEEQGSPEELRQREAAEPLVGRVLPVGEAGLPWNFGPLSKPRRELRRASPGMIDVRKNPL
Nature of the data set: Inhibition of MT-stimulated Kif7 ATPase activity.

The target in data set [4] is Kinesin-like protein KIF20B (Homo sapiens) (UniProt Q96Q89). Nature of the data set: Inhibition of MPP1 ATPase activity.
Chain of Kinesin-like protein KIF20B (Homo sapiens) (Q96Q89 whole entry): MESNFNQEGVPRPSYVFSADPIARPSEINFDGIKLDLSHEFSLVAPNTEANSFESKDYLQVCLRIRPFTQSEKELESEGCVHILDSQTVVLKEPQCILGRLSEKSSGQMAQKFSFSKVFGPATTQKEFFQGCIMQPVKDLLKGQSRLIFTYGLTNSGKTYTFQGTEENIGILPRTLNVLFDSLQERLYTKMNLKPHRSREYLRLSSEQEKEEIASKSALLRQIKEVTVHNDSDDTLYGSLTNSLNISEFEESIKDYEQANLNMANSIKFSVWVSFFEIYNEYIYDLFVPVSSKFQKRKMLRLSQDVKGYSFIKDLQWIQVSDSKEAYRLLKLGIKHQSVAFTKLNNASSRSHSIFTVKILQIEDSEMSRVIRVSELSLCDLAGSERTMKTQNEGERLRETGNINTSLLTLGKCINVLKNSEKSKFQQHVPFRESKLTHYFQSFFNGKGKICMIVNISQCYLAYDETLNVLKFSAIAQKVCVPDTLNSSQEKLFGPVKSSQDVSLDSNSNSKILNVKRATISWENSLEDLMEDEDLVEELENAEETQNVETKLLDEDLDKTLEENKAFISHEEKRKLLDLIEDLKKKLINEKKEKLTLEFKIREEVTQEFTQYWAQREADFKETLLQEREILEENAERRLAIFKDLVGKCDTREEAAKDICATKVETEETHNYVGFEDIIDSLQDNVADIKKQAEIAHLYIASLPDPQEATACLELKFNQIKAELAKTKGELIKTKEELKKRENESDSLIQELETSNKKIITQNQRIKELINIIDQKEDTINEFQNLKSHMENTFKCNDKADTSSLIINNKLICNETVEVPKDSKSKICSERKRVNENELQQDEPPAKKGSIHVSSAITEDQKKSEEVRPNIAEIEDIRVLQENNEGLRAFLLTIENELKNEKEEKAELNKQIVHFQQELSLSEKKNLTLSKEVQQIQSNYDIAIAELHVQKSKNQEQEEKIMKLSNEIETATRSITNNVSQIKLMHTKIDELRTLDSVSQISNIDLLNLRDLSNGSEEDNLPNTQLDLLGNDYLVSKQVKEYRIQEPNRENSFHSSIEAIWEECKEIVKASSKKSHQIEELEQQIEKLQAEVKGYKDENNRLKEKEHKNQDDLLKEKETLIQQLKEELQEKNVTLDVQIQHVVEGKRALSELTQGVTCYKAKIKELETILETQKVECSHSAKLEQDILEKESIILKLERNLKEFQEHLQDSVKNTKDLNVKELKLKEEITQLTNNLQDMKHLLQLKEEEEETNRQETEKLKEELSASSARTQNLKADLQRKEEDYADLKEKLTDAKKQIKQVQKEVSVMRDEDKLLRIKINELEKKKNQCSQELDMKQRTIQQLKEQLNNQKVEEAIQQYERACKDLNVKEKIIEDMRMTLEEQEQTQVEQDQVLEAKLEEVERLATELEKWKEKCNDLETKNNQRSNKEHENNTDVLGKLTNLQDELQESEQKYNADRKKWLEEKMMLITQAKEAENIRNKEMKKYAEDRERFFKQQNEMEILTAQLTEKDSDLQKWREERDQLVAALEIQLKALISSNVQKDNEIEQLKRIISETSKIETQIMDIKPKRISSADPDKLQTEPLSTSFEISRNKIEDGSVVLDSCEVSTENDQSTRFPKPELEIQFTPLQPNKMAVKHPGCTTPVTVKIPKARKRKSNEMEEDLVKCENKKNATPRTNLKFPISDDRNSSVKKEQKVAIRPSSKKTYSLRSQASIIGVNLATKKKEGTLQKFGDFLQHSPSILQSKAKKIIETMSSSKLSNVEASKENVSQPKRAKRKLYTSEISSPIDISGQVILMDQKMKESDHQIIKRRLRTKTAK
Data set [5] shares this target. Nature of the data set: Inhibition of MT-stimulated MPP1 ATPase activity.
Data set [6] has as its target Centromere-associated protein E (Homo sapiens) (UniProt Q02224). Nature of the data set: Inhibition of MT-stimulated CENP-E ATPase activity.
A further data set deals with HCT-116. Nature of the data set: Antiproliferative activity against human HCT116 cells after 72 hrs by Alamar blue assay. In kind it is functional. The settings on record: HCT-116, 72 h. (Resazurin is reduced to fluorescent resorufin, in cell work by metabolically active cells.)
Data set [7] in a line: Lipophilicity, Log P of the compound. The format is physicochemical. The settings on record: octanol/water; read-out: logP.
Data set [8] can be described thus: Antitumor activity against human LXFS 538 cells xenografted in nu/nu nude Charles river mouse assessed as inhibition of tumor growth dosed at 20 mg/kg on days 0, 2 and 4 and 15 mg/kg on days 17, 19, 24 measured after 10 days. In kind it is functional. On the technique in general: In xenograft studies the graft and the host belong to different species.

Active and inactive are the calls of the source. The calls are words filed in the database; no cut-off is given here.

Chain of Centromere-associated protein E (Homo sapiens) (Q02224 whole entry): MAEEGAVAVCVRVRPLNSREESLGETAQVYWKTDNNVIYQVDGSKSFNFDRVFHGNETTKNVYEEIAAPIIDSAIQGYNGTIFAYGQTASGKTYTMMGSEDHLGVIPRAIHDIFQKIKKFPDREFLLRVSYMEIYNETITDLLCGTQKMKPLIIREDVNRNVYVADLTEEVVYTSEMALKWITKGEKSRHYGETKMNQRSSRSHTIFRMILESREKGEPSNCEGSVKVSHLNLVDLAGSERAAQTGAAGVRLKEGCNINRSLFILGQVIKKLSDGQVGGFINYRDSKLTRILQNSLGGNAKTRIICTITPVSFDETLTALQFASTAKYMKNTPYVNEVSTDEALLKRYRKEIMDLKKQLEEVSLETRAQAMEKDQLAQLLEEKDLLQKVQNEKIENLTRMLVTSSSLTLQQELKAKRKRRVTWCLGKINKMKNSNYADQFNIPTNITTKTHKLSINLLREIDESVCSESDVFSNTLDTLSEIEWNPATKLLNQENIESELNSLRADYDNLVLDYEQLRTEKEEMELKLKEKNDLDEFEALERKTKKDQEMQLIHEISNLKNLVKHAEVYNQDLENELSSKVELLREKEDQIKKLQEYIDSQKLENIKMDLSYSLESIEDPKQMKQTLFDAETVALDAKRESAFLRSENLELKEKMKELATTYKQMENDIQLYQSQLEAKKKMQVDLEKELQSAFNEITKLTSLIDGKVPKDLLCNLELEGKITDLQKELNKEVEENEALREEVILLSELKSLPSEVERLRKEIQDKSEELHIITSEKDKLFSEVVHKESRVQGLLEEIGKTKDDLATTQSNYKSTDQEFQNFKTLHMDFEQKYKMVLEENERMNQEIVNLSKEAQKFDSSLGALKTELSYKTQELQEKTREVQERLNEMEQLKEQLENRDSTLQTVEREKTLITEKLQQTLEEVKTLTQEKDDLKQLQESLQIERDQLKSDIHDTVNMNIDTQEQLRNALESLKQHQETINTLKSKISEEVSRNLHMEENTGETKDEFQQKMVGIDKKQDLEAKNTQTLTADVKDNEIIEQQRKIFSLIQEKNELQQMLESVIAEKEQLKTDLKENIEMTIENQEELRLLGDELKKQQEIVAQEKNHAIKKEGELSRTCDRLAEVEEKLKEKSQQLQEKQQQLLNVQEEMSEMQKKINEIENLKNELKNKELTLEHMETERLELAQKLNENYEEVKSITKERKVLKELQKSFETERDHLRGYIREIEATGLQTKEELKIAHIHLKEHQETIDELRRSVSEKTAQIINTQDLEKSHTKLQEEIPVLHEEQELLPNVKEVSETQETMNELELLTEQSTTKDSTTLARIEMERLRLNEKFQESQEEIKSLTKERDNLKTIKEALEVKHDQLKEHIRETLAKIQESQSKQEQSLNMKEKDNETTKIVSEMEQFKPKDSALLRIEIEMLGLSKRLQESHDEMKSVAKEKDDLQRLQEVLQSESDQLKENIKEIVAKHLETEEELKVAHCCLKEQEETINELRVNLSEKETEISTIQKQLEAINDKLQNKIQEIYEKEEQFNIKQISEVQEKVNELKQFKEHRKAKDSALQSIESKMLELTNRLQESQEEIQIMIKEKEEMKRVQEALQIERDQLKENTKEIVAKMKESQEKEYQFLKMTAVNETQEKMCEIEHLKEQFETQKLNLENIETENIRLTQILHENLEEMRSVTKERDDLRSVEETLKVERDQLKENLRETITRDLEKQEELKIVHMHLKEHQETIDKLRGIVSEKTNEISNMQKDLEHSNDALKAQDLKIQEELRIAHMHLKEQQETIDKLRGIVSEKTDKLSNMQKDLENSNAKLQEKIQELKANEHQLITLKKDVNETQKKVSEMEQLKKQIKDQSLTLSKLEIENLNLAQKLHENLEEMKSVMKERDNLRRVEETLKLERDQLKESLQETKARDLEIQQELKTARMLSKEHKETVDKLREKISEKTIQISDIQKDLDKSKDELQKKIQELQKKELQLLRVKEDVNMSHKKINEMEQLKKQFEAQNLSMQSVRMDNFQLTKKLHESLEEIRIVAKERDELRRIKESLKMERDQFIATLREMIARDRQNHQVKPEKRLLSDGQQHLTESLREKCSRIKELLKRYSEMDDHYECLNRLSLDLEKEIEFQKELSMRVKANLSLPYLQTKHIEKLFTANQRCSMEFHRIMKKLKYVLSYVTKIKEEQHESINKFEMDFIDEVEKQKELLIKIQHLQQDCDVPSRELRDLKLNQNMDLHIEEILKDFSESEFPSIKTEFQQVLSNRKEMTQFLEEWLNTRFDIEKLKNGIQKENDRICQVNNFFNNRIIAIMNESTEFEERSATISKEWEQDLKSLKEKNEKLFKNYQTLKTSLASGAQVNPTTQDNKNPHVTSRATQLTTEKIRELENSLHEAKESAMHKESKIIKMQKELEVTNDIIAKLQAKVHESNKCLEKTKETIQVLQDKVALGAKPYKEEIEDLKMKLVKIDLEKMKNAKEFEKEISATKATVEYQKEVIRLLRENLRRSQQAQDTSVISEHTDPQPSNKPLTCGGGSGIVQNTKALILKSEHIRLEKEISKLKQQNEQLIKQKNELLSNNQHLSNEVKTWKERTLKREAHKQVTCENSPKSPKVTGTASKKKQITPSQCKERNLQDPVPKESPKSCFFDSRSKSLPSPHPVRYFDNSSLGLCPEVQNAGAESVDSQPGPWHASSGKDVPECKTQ

In general, GI50 refers to the concentration that inhibits growth by half. Lower therefore signals more potent growth inhibition. Broadly, the logP is the decadic logarithm of the partition coefficient of the neutral form, usually between octanol and water. A word on the T/C: it is the ratio of treated to control. For `Cc1cccc(C(CCC(N)C(=O)O)(c2ccccc2)c2ccccc2)c1` (racemic), the inhibition entry in [1], in [2], in data set [3], in [4], in data set [5] and in data set [6] was “inactive” in each case. In the data set with HCT-116, this compound gave a GI50 of 0.099 µM. Further, in [7], the logP was 2.45. Also, in [8], the T/C is 26.3%.

Values taken from ChEMBL document CHEMBL2021885, “Triphenylbutanamines: kinesin spindle protein inhibitors with in vivo antitumor activity” (J Med Chem, 2012).
